Experimental data as given in patent US20040253597A1, “Novel protein and dna thereof” (priority 2001, published 2004).

Molecular target: T1, human TCH169 (Homo sapiens, UniProt Q86YT5)
T1 construct: expressed in transfected cells
Assay: [1,5-^14C] citric acid uptake in the human TCH169 gene expression cell line
Assay type: cell-based
Settings: human TCH169 expressing CHO cells clone No. 2-11; NaCl buffer (140 mM NaCl) vs NMDG buffer and Mock cells; 37° C., 15 minutes, 30 minutes and an hour
Description: Using human TCH169 gene expression cell line clone No. 2-11 acquired in EXAMPLE 7, the uptake of [1,5-^14C] citric acid was assayed. Human TCH169 gene expression cell line clone No. 2-11 was seeded on a 96 well plate in 4×10^4 cells per well, followed by incubation at 37° C. for 24 hours. After the medium was removed, the cells were washed 3 times with 150 μL NMDG buffer (140 mM N-methyl-D(−)-glucamine, 25 mM Hepes/Tris, 5.4 mM KCl, 1.8 mM CaCl2, 0.8 mM MgSO4, 5 mM glucose, pH 7.4-7.6), and 150 μL NMDG buffer was supplemented thereto followed by incubation at 37° C. for an hour. After the buffer was replaced with 90 μL NaCl buffer (140 mM NaCl, 25 mM Hepes/Tris, 5.4 mM KCl, 1.8 mM CaCl2, 0.8 mM MgSO4, 5 mM glucose, pH 7.4-7.6) or 90 μL NMDG buffer, 10 μL of 223 μM [1,5-^14C] citric acid (manufactured by Amersham-Pharmacia-Biotech) was added and incubation was performed at 37° C. for 15 minutes, 30 minutes and an hour followed by washing 3 times with 200 μL PBS (manufactured by Takara Shuzo Co., Ltd.). After 100 μL of Opitiphase ‘SuperMix’ (manufactured by Perkin-Elmer-Life Science) was added to the system and the mixture was stirred, the amount of [1,5-^14C] citric acid taken up into the cells was measured in terms of the radioactivity. […] CHO dhfr^− cells transfected with vector pcDNA3.1(+) (Mock) was also treated in a similar manner to measure the radioactivity as well.

T1 sequence (Q86YT5 whole entry): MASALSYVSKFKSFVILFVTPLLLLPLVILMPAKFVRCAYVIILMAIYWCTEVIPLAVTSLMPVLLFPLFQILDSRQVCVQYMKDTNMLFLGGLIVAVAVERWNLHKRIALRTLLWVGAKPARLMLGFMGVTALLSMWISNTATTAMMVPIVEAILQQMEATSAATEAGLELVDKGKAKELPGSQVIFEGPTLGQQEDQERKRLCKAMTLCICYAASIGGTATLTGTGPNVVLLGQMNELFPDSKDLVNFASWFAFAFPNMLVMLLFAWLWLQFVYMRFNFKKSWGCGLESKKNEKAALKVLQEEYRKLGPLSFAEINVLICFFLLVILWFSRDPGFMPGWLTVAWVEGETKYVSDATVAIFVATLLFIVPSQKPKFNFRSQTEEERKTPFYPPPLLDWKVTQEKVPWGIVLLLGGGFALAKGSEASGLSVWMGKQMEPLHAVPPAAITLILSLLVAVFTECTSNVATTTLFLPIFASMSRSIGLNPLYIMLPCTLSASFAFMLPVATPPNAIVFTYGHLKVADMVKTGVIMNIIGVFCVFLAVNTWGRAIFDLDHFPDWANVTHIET

## O=C(O)C(O)(C[14C](=O)O)C[14C](=O)O [[1,5-^14C] citric acid]
  uptake of [1,5-^14C] citric acid into the cells (radioactivity): taken up into the human TCH169 expression CHO cells
